Reference: ChEMBL document CHEMBL1152446, “Identification of an orally efficacious matrix metalloprotease 12 inhibitor for potential treatment of asthma” (J Med Chem, 2009)

Experiments:
in vitro [1] = conditions: human, liver microsomes
Collagenase 3 = Collagenase 3 (Homo sapiens, UniProt P45452); test: Inhibition of human recombinant MMP13
[2] = Metabolic stability in C57BL/6 mouse liver microsome assessed as half life; assay type: ADME; conditions: liver microsomes
in vitro [3] = conditions: rat, liver microsomes
[4] = Cmax in C57BL/6 mouse at 30 mg/kg, po; assay type: ADME, organism-based; parameters: dose 30 mg/kg, route oral; conditions: in vivo
[5] = Clearance in C57BL/6 mouse at 2 mg/kg, iv; assay type: ADME, organism-based; parameters: dose 2 mg/kg, route intravenous; conditions: in vivo
[6] = Half life in C57BL/6 mouse at 30 mg/kg, po; assay type: ADME, organism-based; parameters: dose 30 mg/kg, route oral; conditions: in vivo
[7] = Oral bioavailability in C57BL/6 mouse at 30 mg/kg; assay type: ADME, organism-based; conditions: in vivo
[8] = Volume of distribution at steady state in C57BL/6 mouse at 2 mg/kg, iv; assay type: ADME, organism-based; parameters: dose 2 mg/kg, route intravenous; conditions: in vivo, read-out: Vdss
[9] = target: Macrophage metalloelastase MMP-12 (Homo sapiens) (UniProt P39900); test: Inhibition of MMP12
Macrophage metalloelastase MMP-12 (Homo sapiens), sequence (P39900 whole entry, looked up): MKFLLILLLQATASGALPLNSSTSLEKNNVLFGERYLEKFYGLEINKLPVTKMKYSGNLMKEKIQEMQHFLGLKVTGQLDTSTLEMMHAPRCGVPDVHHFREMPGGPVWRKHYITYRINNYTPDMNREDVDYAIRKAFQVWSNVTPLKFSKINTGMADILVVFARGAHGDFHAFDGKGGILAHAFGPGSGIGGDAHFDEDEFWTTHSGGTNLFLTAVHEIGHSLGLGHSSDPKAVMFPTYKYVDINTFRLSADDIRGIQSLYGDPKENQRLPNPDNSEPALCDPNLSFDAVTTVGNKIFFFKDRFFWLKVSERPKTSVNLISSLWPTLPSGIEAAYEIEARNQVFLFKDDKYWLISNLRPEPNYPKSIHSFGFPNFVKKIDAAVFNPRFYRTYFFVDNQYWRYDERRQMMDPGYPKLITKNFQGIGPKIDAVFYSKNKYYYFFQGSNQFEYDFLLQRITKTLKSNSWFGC

SMILES	half-life (in vitro [1])	IC50 (Collagenase 3)	half-life [2]	half-life (in vitro [3])	IC50 [9]	Cmax [4]	clearance [5]	half-life [6]	bioavailability [7]	Vd [8]
CC(C)[C@H](NS(=O)(=O)c1ccc2c(c1)sc1cc(NC(=O)Oc3ccccc3)ccc12)C(=O)O	> 30 min	225 nM	> 30 min	> 30 min						
COC(=O)Nc1ccc2sc3cc(S(=O)(=O)N[C@@H](C(=O)O)C(C)C)ccc3c2c1	> 30 min	1.22 nM	> 30 min	> 30 min		738 ng/mL	59.9 mL/min/kg	276 min	19%	3.7 L/kg
CC(C)[C@H](NS(=O)(=O)c1ccc2c(c1)oc1cc(N3CCOC3=O)ccc12)C(=O)O	> 30 min	370 nM	> 30 min	> 30 min						
COC(=O)Nc1ccc2c(c1)sc1ccc(S(=O)(=O)N[C@@H](C(=O)O)C(C)C)cc12	> 30 min	> 25000 nM	> 30 min	> 30 min						
CC(C)[C@H](NS(=O)(=O)c1ccc2c(c1)oc1cc(NC(=O)NCCc3cccs3)ccc12)C(=O)O	> 30 min	187 nM	> 30 min	> 30 min						
CC(C)[C@@H](NS(=O)(=O)c1ccc2sc3ccccc3c2c1)C(=O)O		13800 nM								
COC(=O)Nc1ccc2sc3cc(S(=O)(=O)N[C@H](C(=O)O)C(C)C)ccc3c2c1	> 30 min	65 nM	> 30 min	> 30 min		1820 ng/mL	31.2 mL/min/kg	186 min	34%	1.7 L/kg
CC(C)[C@H](NS(=O)(=O)c1ccc2c(c1)sc1cc(NC(=O)NCc3ccccc3)ccc12)C(=O)O	> 30 min	200 nM	> 30 min	> 30 min						
CC(C)[C@H](NS(=O)(=O)c1ccc2c(c1)sc1cc(N)ccc12)C(=O)O	> 30 min	> 1000 nM	> 30 min	> 30 min						
COC(=O)Nc1ccc2c(c1)sc1cc(S(=O)(=O)N[C@H](C(=O)O)C(C)C)ccc12	> 30 min	632 nM	> 30 min	> 30 min						
CC(C)[C@H](NS(=O)(=O)c1ccc2c(c1)sc1cc(NC(=O)Nc3ccccc3)ccc12)C(=O)O	> 30 min	269 nM	> 30 min	> 30 min						
COC(=O)Nc1ccc2oc3cc(S(=O)(=O)N[C@H](C(=O)O)C(C)C)ccc3c2c1	> 30 min		> 30 min	> 30 min	2 nM					

Second part, led by results:

half-life (in vitro [1])	IC50 (Collagenase 3)	half-life [2]	half-life (in vitro [3])	IC50 [9]	SMILES	Cmax [4]	clearance [5]	half-life [6]	bioavailability [7]	Vd [8]
> 30 min	1350 nM	> 30 min	> 30 min		COC(=O)Nc1ccc2c(c1)sc1cc(S(=O)(=O)N[C@@H](C(=O)O)C(C)C)ccc12					
	> 25000 nM				CC(C)[C@@H](NS(=O)(=O)c1ccc2sc3cc(NS(C)(=O)=O)ccc3c2c1)C(=O)O					
> 30 min	215 nM	> 30 min	> 30 min		COC(=O)Nc1ccc2c(c1)oc1cc(S(=O)(=O)N[C@@H](C(=O)O)C(C)C)ccc12					
	277 nM				CC(C)[C@@H](NS(=O)(=O)c1ccc2c(c1)sc1ccc(NS(C)(=O)=O)cc12)C(=O)O					
	1140 nM				CC(C)[C@H](NS(=O)(=O)c1ccc2c(c1)sc1ccc(NS(C)(=O)=O)cc12)C(=O)O					
> 30 min	23 nM	> 30 min	> 30 min		C#CCCOC(=O)Nc1ccc2c(c1)sc1cc(S(=O)(=O)N[C@H](C(=O)O)C(C)C)ccc12					
